This note sets out measurements from ChEMBL document CHEMBL1137066, “Tryptamine-based human beta3-adrenergic receptor agonists. Part 2: SAR of the methylene derivatives” (Bioorg Med Chem Lett, 2004).

Assay [1] concerns the target T1, Beta-1 adrenergic receptor (Homo sapiens, UniProt P08588). The assay can be described thus: Agonistic activity at human Beta-1 adrenergic receptor at 1000 nM concentration. Type of assay: functional.
Target sequence in this assay (P08588 whole entry, looked up): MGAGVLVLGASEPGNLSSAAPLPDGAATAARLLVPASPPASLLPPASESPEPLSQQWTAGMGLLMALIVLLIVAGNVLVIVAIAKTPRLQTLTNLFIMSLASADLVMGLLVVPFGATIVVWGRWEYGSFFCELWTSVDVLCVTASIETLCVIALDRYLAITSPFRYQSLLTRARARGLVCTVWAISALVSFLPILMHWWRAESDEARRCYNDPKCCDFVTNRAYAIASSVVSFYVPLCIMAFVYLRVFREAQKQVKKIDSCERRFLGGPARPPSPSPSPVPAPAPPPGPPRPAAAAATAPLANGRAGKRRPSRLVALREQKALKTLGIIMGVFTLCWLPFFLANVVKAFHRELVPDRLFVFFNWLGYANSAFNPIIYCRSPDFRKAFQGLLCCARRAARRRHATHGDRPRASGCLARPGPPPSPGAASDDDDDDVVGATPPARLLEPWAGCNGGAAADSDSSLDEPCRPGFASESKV
For assay [2], the target named is T2, Beta-3 adrenergic receptor (Homo sapiens, UniProt P13945). The assay can be described thus: Intrinsic activity expressed as percentage of maximal stimulation with isoproterenol of Beta-3 adrenergic receptor. It counts as functional.
Target sequence in this assay (P13945 whole entry, looked up): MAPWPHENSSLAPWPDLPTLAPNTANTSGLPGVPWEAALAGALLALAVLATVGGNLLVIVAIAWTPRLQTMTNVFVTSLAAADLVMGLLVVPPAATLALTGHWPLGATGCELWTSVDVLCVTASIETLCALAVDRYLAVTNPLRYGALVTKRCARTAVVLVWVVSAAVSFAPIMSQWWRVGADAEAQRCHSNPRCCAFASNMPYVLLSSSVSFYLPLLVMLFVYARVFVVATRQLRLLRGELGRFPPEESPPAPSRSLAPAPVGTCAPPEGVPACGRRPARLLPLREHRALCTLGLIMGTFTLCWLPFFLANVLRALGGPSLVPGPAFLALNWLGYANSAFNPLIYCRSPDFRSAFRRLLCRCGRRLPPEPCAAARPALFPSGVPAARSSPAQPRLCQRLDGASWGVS
Assay [3] deals with T2, Beta-3 adrenergic receptor. The assay can be described thus: Agonistic activity was determined by measuring cAMP accumulation in CHO cells expressing cloned human Beta-3 adrenergic receptor. Type of assay: functional, cell-based. Background: Cyclic AMP is a second messenger, typically raised through Gs and lowered through Gi signalling.
Target sequence in this assay (P13945 whole entry): as the sequence (P13945 whole entry, looked up) above
Assay [4] addresses T3, Beta-2 adrenergic receptor (Homo sapiens, UniProt P07550). Briefly: (§1) Agonistic activity at human Beta-2 adrenergic receptor at 1000 nM concentration. Type of assay: functional.
Target sequence in this assay (P07550 whole entry, looked up): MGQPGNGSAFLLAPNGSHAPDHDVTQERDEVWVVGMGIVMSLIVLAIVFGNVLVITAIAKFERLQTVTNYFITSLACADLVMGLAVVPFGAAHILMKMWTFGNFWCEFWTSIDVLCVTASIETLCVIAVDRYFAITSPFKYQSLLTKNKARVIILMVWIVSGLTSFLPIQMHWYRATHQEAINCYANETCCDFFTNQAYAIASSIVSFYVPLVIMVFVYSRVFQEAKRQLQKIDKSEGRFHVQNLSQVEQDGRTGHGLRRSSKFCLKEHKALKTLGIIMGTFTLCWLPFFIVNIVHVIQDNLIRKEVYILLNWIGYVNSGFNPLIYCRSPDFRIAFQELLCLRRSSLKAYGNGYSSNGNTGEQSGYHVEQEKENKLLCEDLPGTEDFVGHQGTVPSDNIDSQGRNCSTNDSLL
Assay [5] has as its target T2, Beta-3 adrenergic receptor. The description is as §1. Type of assay: functional.
Target sequence in this assay (P13945 whole entry, looked up): as the sequence (P13945 whole entry, looked up) above
Assay [6] concerns the target T3, Beta-2 adrenergic receptor. Briefly: Intrinsic activity determined by measuring cAMP accumulation in CHO cells expressing cloned human Beta-2 adrenergic receptor and activity expressed as percentage of maximal stimulation with isoproterenol. It counts as functional, cell-based.
Target sequence in this assay (P07550 whole entry, looked up): as the sequence (P07550 whole entry, looked up) above
The target in assay [7] is T3, Beta-2 adrenergic receptor. Briefly: Binding inhibition constant was determined by inhibition of [125I]iodocyanopindolol binding to Beta-2 adrenergic receptor.
Target sequence in this assay (P07550 whole entry): as the sequence (P07550 whole entry, looked up) above
Assay [8] deals with T2, Beta-3 adrenergic receptor. Briefly: Binding inhibition constant was determined by inhibition of [125I]iodocyanopindolol binding to Beta-3 adrenergic receptor.
Target sequence in this assay (P13945 whole entry): as the sequence (P13945 whole entry, looked up) above
For assay [9], the target named is T1, Beta-1 adrenergic receptor. Briefly: Binding inhibition constant was determined by inhibition of [125I]-iodocyanopindolol binding to Beta-1 adrenergic receptor.
Target sequence in this assay (P08588 whole entry): as the sequence (P08588 whole entry, looked up) above
The target of assay [10] is T3, Beta-2 adrenergic receptor. The assay can be described thus: Agonistic activity was determined by measuring cAMP accumulation in CHO cells expressing cloned human Beta-2 adrenergic receptor. Type of assay: functional, cell-based.
Target sequence in this assay (P07550 whole entry): as the sequence (P07550 whole entry, looked up) above
In assay [11] the target is T1, Beta-1 adrenergic receptor. The assay can be described thus: Intrinsic activity expressed as percentage of maximal stimulation with isoproterenol of Beta-1 adrenergic receptor. Type of assay: functional.
Target sequence in this assay (P08588 whole entry, looked up): as the sequence (P08588 whole entry, looked up) above
In assay [12] the target is T1, Beta-1 adrenergic receptor. The assay can be described thus: Agonistic activity was determined by measuring cAMP accumulation in CHO cells expressing cloned human Beta-1 adrenergic receptor. It counts as functional, cell-based.
Target sequence in this assay (P08588 whole entry): as the sequence (P08588 whole entry, looked up) above

The structures appear in SMILES notation. pEC50, pKi: −log10 of the molar value.

For orientation: pEC50 means the EC50 on a negative log10 scale, so that one unit is a factor of ten. High values mean a small EC50, low ones a large EC50. For `CS(=O)(=O)Oc1cccc2c(CCNC[C@H](O)c3cccc(NS(=O)(=O)CC(F)(F)F)c3)c[nH]c12`, the figures for the Activity in assay [1] and in [4] were 0% and 24%, respectively. This compound showed an IA in assay [2] of 49%. In addition, the pEC50 in assay [3] is 7.32.
`CS(=O)(=O)Oc1cccc2c(CCNC[C@H](O)c3cccc(NS(=O)(=O)c4ccccc4)c3)c[nH]c12`: the Activity in assay [1] came out at 14%; in [4], 15%. This compound also yielded an IA in [2] of 86%. The negative-log EC50 (pEC50) in assay [3] was 8.70.
Consider `CS(=O)(=O)Oc1cccc2c(CCNC[C@H](O)c3cccc(NS(=O)(=O)c4cccc(Cl)c4)c3)c[nH]c12`, for which the Activity in assay [1] is 11%; in assay [6] it was 13%. The compound further had a negative logarithm of the EC50 (pEC50) in assay [3] of 9.00. The same compound registered an IA in [5] of 96%.
`COc1cccc2c(CCNC[C@H](O)c3cccc(NS(=O)(=O)c4cccs4)c3)c[nH]c12`: the Activity is 6% in assay [1] and 16% in [4]. In assay [2], this compound showed an IA of 87%. The compound further had a pEC50 in [3] of 7.89.
In the case of `COc1cccc(S(=O)(=O)Nc2cccc([C@@H](O)CNCCc3c[nH]c4c(OS(C)(=O)=O)cccc34)c2)c1`, the figures for the Activity in assay [1] and in assay [4] were 11% and 10%, respectively. Besides, in assay [2], the IA was determined as 97%. Also, in assay [3], the pEC50 is 9.03.
Take `CS(=O)(=O)Oc1cccc2c(CCNC[C@H](O)c3cccc(NS(=O)(=O)c4ccc(Br)s4)c3)c[nH]c12`: the Activity in assay [1] turned out to be 6%; in assay [4], 17%. The compound further gave an IA in [2] of 82%. This compound showed a pEC50 in [3] of 8.55.
With `O=S(=O)(Nc1cccc([C@@H](O)CNCCc2c[nH]c3ccccc23)c1)c1cccs1`, the Activity in assay [1] was determined as 2%; in assay [4], 15%. In addition, the IA in assay [2] is 73%. In [3], this compound showed a pEC50 of 7.68.
As to `CS(=O)(=O)Oc1cccc2c(CCNC[C@H](O)c3cccc(NS(=O)(=O)c4cc(Cl)c(Cl)s4)c3)c[nH]c12`, the results for the Activity in assay [1] and in assay [4] were 7% and 18%, respectively. In assay [2], this compound returned an IA of 93%. The pEC50 in assay [3] is 8.17.
Broadly, the pKi is the negative decadic logarithm of the Ki, by convention in mol/L. Read a high pKi as a low Ki. As to `CS(=O)(=O)Oc1cccc2c(CCNC[C@H](O)c3cccc(NS(=O)(=O)c4cccs4)c3)c[nH]c12`, the Activity in assay [1] is 12%; in assay [4], 23%. This compound showed an IA in assay [2] of 89%. Further, in [3], the pEC50 was 8.77. Moreover, the pKi in [7] is 6.65; in assay [8] it was 7.48; in [9], 6.64.
For `O=S(=O)(Nc1cccc([C@@H](O)CNCCc2c[nH]c3c(OCc4ccccc4)cccc23)c1)c1cccs1`, the figures for the Activity in assay [1] and in [4] were 10% and 32%, respectively. For the same compound, the IA in [2] came out at 81%. This compound also gave a pEC50 in assay [3] of 8.12.
With `C[C@H](Cc1c[nH]c2c(OS(C)(=O)=O)cccc12)NC[C@H](O)c1cccc(NS(=O)(=O)c2cccs2)c1`, the pEC50 was 7.74 in [10], 9.68 in assay [3] and 7.36 in assay [12]. Also, the IA in [2] is 97%; in assay [11], 36%. The negative logarithm of the Ki (pKi) was 7.32 in assay [7], 8.40 in [8] and 7.18 in assay [9].
For `CS(=O)(=O)Oc1cccc2c(CCNC[C@H](O)c3cccc(NS(=O)(=O)c4cccc(F)c4)c3)c[nH]c12`, the Activity in [1] turned out to be 10%; in assay [4], 8%. For the same compound, the IA in assay [2] was 97%. The compound also gave a negative logarithm of the EC50 (pEC50) in [3] of 8.62.
In the same order, the values of `CS(=O)(=O)Oc1cccc2c(CCNC[C@H](O)c3cccc(NS(=O)(=O)c4ccccc4N)c3)c[nH]c12` are 7%, 9%, 80% and 8.52.
For the compound `CS(=O)(=O)Oc1cccc2c(CCNC[C@H](O)c3cccc(NS(=O)(=O)c4ccc(N)cc4)c3)c[nH]c12`, the Activity in [1] came to 5%; in [4], 15%. Further, the IA in assay [2] came out at 85%. For the same compound, the pEC50 in [3] is 8.08.
The corresponding values for `Cc1cccc2c(CCNC[C@H](O)c3cccc(NS(=O)(=O)c4cccs4)c3)c[nH]c12` are 3%, 9%, 77% and 7.60.
Take `CS(=O)(=O)Oc1cccc2c(CCNC[C@H](O)c3cccc(NS(=O)(=O)c4cccc(N)c4)c3)c[nH]c12`: the Activity in [1] came out at 3%; in [4] it was 6%. The compound further registered an IA in assay [2] of 105%. This compound had a pEC50 in assay [3] of 9.51. Moreover, the figures for the negative logarithm of the Ki (pKi) in assay [7], in [8] and in [9] were 7.15, 8.59 and 7.05, respectively.
